Laboratory results published in ChEMBL document CHEMBL4425176, “1,2,3-Triazoles as inhibitors of indoleamine 2,3-dioxygenase 2 (IDO2)” (Bioorg Med Chem Lett, 2016).

What was measured:
Type in all cases: cell-based
[1] = molecular target: T1, Indoleamine 2,3-dioxygenase 2 (Mus musculus) (UniProt Q8R0V5); experiment: Inhibition of mouse IDO2 transfected in HEK293T cells assessed as kynurenine formation using L-Trp as substrate at 200 uM after 24 hrs
T1 sequence (whole entry): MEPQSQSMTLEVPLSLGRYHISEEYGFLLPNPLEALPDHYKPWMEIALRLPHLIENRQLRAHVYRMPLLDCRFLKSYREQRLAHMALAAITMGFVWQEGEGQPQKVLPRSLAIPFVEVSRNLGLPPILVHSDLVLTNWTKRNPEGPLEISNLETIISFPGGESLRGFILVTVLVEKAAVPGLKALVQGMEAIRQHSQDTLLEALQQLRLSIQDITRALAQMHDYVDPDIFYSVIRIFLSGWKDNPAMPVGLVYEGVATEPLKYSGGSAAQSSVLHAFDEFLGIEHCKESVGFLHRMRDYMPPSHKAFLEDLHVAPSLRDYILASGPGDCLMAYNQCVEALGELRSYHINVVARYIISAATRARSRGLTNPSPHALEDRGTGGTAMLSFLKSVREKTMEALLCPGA

[2] = molecular target: T2, Indoleamine 2,3-dioxygenase 1 (Homo sapiens, UniProt P14902); experiment: Inhibition of human IDO1 transfected in HEK293T cells assessed as kynurenine formation using L-Trp as substrate at 200 uM after 7 hrs
Target sequence in this assay (P14902 whole entry, looked up): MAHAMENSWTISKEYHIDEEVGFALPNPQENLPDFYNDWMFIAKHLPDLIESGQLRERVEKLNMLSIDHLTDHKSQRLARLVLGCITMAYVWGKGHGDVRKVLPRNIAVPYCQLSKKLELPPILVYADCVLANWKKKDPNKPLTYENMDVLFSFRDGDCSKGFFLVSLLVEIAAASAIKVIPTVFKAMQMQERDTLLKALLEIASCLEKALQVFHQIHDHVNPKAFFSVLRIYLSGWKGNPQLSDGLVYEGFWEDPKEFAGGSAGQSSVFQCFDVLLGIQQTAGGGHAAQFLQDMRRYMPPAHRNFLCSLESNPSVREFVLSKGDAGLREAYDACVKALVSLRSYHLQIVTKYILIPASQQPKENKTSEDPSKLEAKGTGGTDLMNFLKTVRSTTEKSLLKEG

[3] = tested on: HEK-293T; experiment: Cytotoxicity against HEK293T cells transfected with human IDO1 or mouse IDO2 assessed as apoptotic cells at 200 uM after 7 hrs or 24 hrs by DAPI staining based cytometric analysis relative to control
[4] = molecular target: T2, Indoleamine 2,3-dioxygenase 1; experiment: Inhibition of human IDO1 transfected in HEK293T cells assessed as kynurenine formation using L-Trp as substrate after 7 hrs
Target sequence in this assay (P14902 whole entry): as the sequence (P14902 whole entry, looked up) above

[5] = Selectivity ratio of IC50 for human IDO1 to IC50 for mouse IDO2 transfected in HEK293T cells
[6] = molecular target: T3, Indoleamine 2,3-dioxygenase 2 (Mus musculus, UniProt Q8R0V5); experiment: Inhibition of mouse IDO2 transfected in HEK293T cells assessed as kynurenine formation using L-Trp as substrate after 24 hrs
T3 sequence (Q8R0V5 whole entry): T1 sequence (whole entry)

| inhibition [1] [%] | inhibition [2] [%] | IC50 [4] [µM] | IC50 [6] [µM] | Compound | Activity [3] [%] | Ratio IC50 [5] |
| --- | --- | --- | --- | --- | --- | --- |
| 14 | 96 | – | – | Oc1ccccc1-c1c[nH]nn1 | 0.2 | – |
| 97 | 32 | – | – | Clc1cccc(-c2c[nH]nn2)c1/C=C/c1ccccc1 | 57.9 | – |
| 97 | 70 | – | – | Clc1ccc(CCc2ccccc2)c(-c2c[nH]nn2)c1 | 51.6 | – |
| 80 | 84 | 105 | 70 | c1ccc(Cc2ccccc2-c2c[nH]nn2)cc1 | 0 | 1.5 |
| 94 | 76 | – | – | Clc1cccc(-c2c[nH]nn2)c1CCc1ccccc1 | 70.8 | – |
| 90 | 58 | 100 | 51 | c1ccc(CCc2ccccc2-c2c[nH]nn2)cc1 | 3.7 | 2 |
| 89 | 74 | – | – | c1ccc(-c2c[nH]nn2)c(CCC2CCCC2)c1 | 35.1 | – |
| 47 | 28 | – | – | OC(Cc1ccccc1-c1c[nH]nn1)c1ccccc1 (configuration not stated) | 0 | – |

More lines, now with the values behind:

| Compound | inhibition [1] [%] | inhibition [2] [%] | IC50 [4] [µM] | IC50 [6] [µM] | Activity [3] [%] | Ratio IC50 [5] |
| --- | --- | --- | --- | --- | --- | --- |
| Clc1cccc(-c2c[nH]nn2)c1 | 2 | 95 | – | – | 0 | – |
| Clc1cccc(-c2c[nH]nn2)c1CCC1CCCC1 | 90 | 71 | – | – | 21.5 | – |
| c1ccc(-c2cnn[nH]2)cc1 | 1 | 93 | – | – | 5.3 | – |
| c1ccc(-c2c[nH]nn2)c(CCC2CCCCC2)c1 | 95 | 77 | – | – | 72.3 | – |
| Clc1ccccc1-c1cnn[nH]1 | 4 | 83 | – | – | – | – |
| Clc1cccc(-c2c[nH]nn2)c1/C=C/C1CCCCC1 | 65 | 56 | 110 | 110 | 5.4 | 1 |
| Clc1ccccc1-c1c[nH]nn1 | – | – | – | – | 0.2 | – |
| Oc1ccc(Cl)cc1-c1c[nH]nn1 | 43 | 98 | – | 120 | 0 | – |
| Clc1ccc(-c2c[nH]nn2)cc1 | 27 | 9 | – | – | – | – |
